According to ChEMBL document CHEMBL1201862, “PubChem BioAssay data set” (2004):
Activity calls are given as the source filed them.

What was measured:
[1] = Luminescence Cell-Based Dose Response HTS to Identify Inhibitors of 5'UTR Stem-Loop Driven Prion Protein mRNA Translation in H4 Neuroglioblastoma Cells. [Related pubchem assays: 1827 (Project Summary), 1813 (Primary HTS)]; assay type: functional
[2] = inhibitors of PGC1a acetylation in cells, dose response, cell-based, cherry-picked samples (AID 720514); assay type: functional;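 further: potency may reflect raised or lowered acetylation signal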
[3] = test system: BJ; assay: cells; assay type: functional, cell-based; conditions: Homo sapiens
[4] = inhibitors of firefly luciferase expression or activity, dose response, H4 neuroglioma cells, luminescence (AID 1990); assay type: functional, cell-based
[5] = test system: BJ; assay: cytotoxicity toward BJ-TERT-LT-ST fibroblasts, dose response, cell-based, RAS-independent, luminescence (AID 1935); assay type: functional; conditions: Homo sapiens;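 further: BJ fibroblasts immortalized with TERT plus LT and ST oncogenes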
[6] = inhibitors of SNCA 5'UTR-driven reporter translation, confirmation, H4 neuroglioma cells, luminescence (AID 1988); assay type: functional, cell-based
[7] = test system: BJ; assay: cytotoxicity toward BJ-TERT fibroblasts, dose response, cell-based, RAS-independent, luminescence (AID 1933); assay type: functional; conditions: Homo sapiens
[8] = cytotoxicity toward DRD oncogenic fibroblasts, dose response, cell-based, non-viral oncogenic, luminescence (AID 1934); assay type: functional; conditions: Homo sapiens
[9] = A Cell Based Secondary Assay To Explore Cytotoxicity of Compounds that Sensitize Mycobacterium Tuberculosis to Beta-Lactam Antibiotics.; assay type: functional
[10] = target: E3 ubiquitin-protein ligase Mdm2 (Homo sapiens, UniProt Q00987); assay: enhancers of MDM2-luciferase reporter signal, concentration-effect titration, project on inhibitors of MDM2 ubiquitin ligase, cellular assay, luminescent readout, 384-well plate format (AID 1394); assay type: functional;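 further: MDM2 E3 inhibitors raise luminescence so EC50 is for signal enhancement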
Chain of E3 ubiquitin-protein ligase Mdm2 (Q00987 whole entry): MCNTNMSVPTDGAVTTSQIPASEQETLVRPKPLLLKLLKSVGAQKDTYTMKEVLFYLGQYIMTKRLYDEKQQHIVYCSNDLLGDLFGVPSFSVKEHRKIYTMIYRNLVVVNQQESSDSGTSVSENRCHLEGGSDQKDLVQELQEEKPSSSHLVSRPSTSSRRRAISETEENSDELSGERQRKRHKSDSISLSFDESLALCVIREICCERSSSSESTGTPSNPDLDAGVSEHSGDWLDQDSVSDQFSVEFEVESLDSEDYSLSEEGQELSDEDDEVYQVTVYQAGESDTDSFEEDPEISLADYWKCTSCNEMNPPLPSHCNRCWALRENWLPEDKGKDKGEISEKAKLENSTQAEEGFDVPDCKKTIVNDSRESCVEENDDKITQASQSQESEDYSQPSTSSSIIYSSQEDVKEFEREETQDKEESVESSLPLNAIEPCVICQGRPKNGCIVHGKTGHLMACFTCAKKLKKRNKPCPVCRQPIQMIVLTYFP

[11] = Luminescence Cell-Based Dose Confirmation HTS to Identify Activators of 5'UTR Stem-Loop Driven Alpha-Synuclein mRNA Translation in H4 Neuroglioblastoma Cells. [Related pubchem assays: 1829 (Project Summary), 1814 (Primary HTS)]; assay type: functional
[12] = target: Eukaryotic translation initiation factor 4E (Mus musculus, UniProt P63073); assay: eIF4E–eIF4G protein interaction inhibitors, dose response, biochemical, TR-FRET (AID 855); assay type: functional;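 further: potency for disrupting eIF4E binding to eIF4GI seen as loss of FRET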
Chain of Eukaryotic translation initiation factor 4E (P63073 whole entry): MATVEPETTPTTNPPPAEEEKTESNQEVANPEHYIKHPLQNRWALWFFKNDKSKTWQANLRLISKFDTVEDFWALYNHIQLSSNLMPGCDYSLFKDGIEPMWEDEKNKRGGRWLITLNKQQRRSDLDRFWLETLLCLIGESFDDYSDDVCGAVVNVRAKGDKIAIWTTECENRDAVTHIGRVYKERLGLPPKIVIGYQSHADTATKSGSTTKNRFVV

[13] = Luminescence Cell-Based Dose Response HTS to Identify Activators of Luciferase Translation or Activity in H4 […] Cells. [Related pubchem assays: 1829 (Project Summary), 1814 (Primary HTS)]; assay type: functional
[14] = target: T1, Hexokinase HKDC1 (Homo sapiens, UniProt Q2TB90); assay: HKDC1 hexokinase inhibitors, dose response, biochemical, W721R variant (AID 504729); assay type: functional
T1 sequence (Q2TB90 whole entry): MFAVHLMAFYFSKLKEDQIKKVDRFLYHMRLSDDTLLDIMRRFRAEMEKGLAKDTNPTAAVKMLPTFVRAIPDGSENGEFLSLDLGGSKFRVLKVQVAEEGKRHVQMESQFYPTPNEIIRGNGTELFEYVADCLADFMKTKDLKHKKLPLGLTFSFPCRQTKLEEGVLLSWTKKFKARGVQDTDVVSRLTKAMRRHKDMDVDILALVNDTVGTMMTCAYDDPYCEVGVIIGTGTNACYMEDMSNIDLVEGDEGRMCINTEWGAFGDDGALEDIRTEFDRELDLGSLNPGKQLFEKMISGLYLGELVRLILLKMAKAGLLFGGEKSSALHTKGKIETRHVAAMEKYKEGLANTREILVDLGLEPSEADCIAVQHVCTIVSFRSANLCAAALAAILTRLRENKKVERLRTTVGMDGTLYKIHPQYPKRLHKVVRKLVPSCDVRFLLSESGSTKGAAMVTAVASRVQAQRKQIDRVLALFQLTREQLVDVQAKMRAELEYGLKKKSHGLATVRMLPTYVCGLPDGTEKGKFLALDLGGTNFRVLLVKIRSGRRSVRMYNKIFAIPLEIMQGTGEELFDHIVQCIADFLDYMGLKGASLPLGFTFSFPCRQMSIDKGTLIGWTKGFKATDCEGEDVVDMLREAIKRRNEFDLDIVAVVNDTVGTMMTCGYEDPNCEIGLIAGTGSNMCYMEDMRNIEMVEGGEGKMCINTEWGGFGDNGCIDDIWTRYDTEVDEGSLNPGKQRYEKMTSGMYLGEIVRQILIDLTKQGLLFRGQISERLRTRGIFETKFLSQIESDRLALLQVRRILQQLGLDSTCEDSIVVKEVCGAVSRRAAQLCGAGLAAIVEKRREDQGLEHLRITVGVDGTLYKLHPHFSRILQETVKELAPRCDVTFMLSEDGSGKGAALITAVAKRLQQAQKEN

[15] = test system: H4; assay: Luminescence Cell-Based Dose Response HTS to Identify Activators of 5'UTR Stem-Loop Driven Prion Protein mRNA Translation in H4 Neuroglioblastoma Cells. [Related pubchem assays: 1829 (Project Summary), 1814 (Primary HTS)]; assay type: functional; conditions: Homo sapiens
[16] = A549 cell cytotoxicity, dose response, cytotoxicity control, plate reader, cherry-pick, antagonist series (AID 743412); assay type: functional, cell-based
[17] = MC4R antagonists, dose response, counter-screen for LGR2 antagonist project, cell-based, plate reader, cherry pick (AID 743444); assay type: functional;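 further: transfected HEK 293 cells stimulated with alpha-MSH peptide; potency of inhibitors of the alpha-MSH evoked signal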
[18] = LGR2 antagonists, dose response, cell-based, HEK293, CRE-luciferase reporter, cherry pick, set 2 (AID 743343); assay type: functional;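 further: transfected cells were stimulated with diluted bursicon conditioned medium after compound addition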
[19] = HepG2 cell cytotoxicity, dose response, cytotoxicity control, plate reader, cherry-pick, antagonist series (AID 743416); assay type: functional, cell-based
[20] = HEK293 cell cytotoxicity, dose response, cytotoxicity control, plate reader, cherry-picked samples (AID 743446); assay type: functional, cell-based
[21] = inhibitors of Vif binding to APOBEC3G peptide, primary screen, biochemical, TR-FRET, GST-Vif 1-94, biotin-A3G peptide, dose response retest (AID 1117319); assay type: functional;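 further: TR-FRET signal of purified GST-Vif binding a biotinylated A3G peptide; inhibitors lower the FRET signal by blocking Vif and A3G binding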
[22] = target: Large T antigen (Simian virus 40, UniProt P03070); assay type: functional, Betapolyomavirus macacae;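 further: Confirmatory-stage PubChem screen for compounds that inhibit SV40 T antigen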
Chain of Large T antigen (P03070 whole entry): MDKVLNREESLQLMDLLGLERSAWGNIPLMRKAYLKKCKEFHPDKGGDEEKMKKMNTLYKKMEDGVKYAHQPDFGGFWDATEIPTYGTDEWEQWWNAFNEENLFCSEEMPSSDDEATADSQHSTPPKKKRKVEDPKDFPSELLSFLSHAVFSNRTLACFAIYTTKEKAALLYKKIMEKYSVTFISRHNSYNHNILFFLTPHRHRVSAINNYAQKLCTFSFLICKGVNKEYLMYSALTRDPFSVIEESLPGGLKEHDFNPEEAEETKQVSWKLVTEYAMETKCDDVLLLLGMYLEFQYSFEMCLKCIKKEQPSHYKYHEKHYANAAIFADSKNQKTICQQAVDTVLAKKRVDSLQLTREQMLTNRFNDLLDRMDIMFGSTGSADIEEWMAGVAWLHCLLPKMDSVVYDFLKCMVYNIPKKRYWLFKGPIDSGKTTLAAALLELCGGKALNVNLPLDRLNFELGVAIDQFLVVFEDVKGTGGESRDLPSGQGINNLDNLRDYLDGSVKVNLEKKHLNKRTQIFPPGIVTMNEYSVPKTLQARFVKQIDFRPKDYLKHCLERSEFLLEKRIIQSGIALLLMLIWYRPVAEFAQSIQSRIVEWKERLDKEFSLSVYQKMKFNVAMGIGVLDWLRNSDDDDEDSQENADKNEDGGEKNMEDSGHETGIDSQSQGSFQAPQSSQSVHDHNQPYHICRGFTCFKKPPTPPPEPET

## CCOc1ccc(N(CC(=O)Nc2ccccc2OC)S(=O)(=O)c2ccccc2)cc1
[1]
  EC50: 0.36 µM (active)
[2]
  AC50: 30.7 µM (active)
[3]
  EC50: 20.3 µM (active)
[4]
  EC50: 4.97 µM (active)
[5]
  EC50: 0.804 µM (active)
[6]
  EC50: 0.323 µM (active)
[7]
  EC50: 0.928 µM (active)
[8]
  EC50: 0.663 µM (active)

## COc1ccc(-c2csc(NC(CO)c3nc4ccccc4n3Cc3ccc(C)cc3)n2)cc1 (centres undefined)
[9]
  CC50: > 40 µM (active)

## COc1cccc(OC)c1C(=O)NNC(=O)c1cccc(COc2ccc3c(c2)CCC3)c1
[10]
  EC50: 0.0021 µM (active)

## Cc1ccc(NC2c3ncccc3C(=O)N2c2ccccc2C)cc1C (centres undefined)
[11]
  EC50: 12 µM (active)
[12]
  IC50: 9.59 µM (active)
[13]
  EC50: 16.5 µM (active)
[14]
  IC50: 11.6 µM (active)
[15]
  EC50: 9.38 µM (active)

## Cc1ccn2cc(-c3ccc(Br)cc3)nc2c1
[16]
  AC50: > 52 µM (inactive)
[17]
  AC50: 2.76 µM (active)
[18]
  AC50: 3.6 µM (active)
[19]
  AC50: 49.2 µM (active)
[20]
  AC50: 42.6 µM (active)

## CN(C)c1nc(SCCOC(=O)COc2ccc(Cl)cc2Cl)nc(N(C)C)n1
[2]
  AC50: 26.1 µM (active)

## COc1cc([N+](=O)[O-])ccc1NC(=O)Oc1ccc(NC(C)=O)cc1
[21]
  IC50: > 100 µM (active)
[22]
  IC50: 8.79 µM (active)

## O=C(CN1CCN(c2ncccn2)CC1)NCc1ccccc1
[10]
  EC50: 34 µM (not active)
